Results as given in US9417257B2, “System and method for collecting, storing, processing, transmitting and presenting very low amplitude signals” (Nativis, Inc., priority 2004, dated 2016).
Where a SMILES comes first, the peptide text is derived from it. [ ]: non-standard residue; d: D form. Nle = CCCC[C@H](N)C(=O)O

Tests used:
20S proteasome = molecular target: T1, 20S proteasome (Homo sapiens, UniProt P28074); test: 20S proteasome assay, cleavage of Suc-Leu-Leu-Val-Tyr-AMC (fluorescence); type: biochemical
T1 construct: purchased EMD Biosciences 539158
Excerpt: The 20S proteasome enzyme is activated with a mild detergent (SDS). The cleavage of the substrate Suc-Leu-Leu-Val-Tyr-AMC by the activated enzyme liberates the fluorescent AMC molecules that can be monitored by exciting AMC at 380 nm and detecting the fluorescence at 460 nm. Proteosome activity is inhibited by phepropeptin D.
In a first study, the ability of phepropeptin D and a MIDS signal of phepropeptin D to inhibit proteosome activity, as measured by the appearance of conversion of the substrate Suc-Leu-Leu-Val-Tyr-AMC to yield a fluorescent signal were measured, following substantially the same methodology described above and in the examples.
The 20S Proteasome assay kit (EMD Biosciences Cat #539158) was adapted for use in a cuvette format with a final volume of 200 μl. Nine samples were set-up using the following procedure:
Reaction buffer (20×) was diluted, 100 μl with 880 μl of HPLC grade water and 20 μl of 100× activation buffer to a final volume of 1 ml.
100 μl of the diluted 2× reaction buffer was added to each of the no enzyme control tubes.
The 20S proteasome enzyme was added to the remaining solution, 3.2 μl to 800 μl of 2× reaction buffer and 100 μl added to each of 7 remaining tubes.
To each tube 100 μl of water or water and inhibitor were added.
In a separate tube 4 μl of the substrate was diluted with 96 μl of HPLC grade water and 10 μl/tube of the diluted substrate was added to each of the reaction tubes to obtain a final volume of 200 μl.
Samples were all mixed by repeated pipetting and the reactions incubated at 37 C for 2 hrs.
Fluorescence was quantiated and recorded using a fluorometer (Turner Designs, Sunnyvale, Calif.—Model TD-700).
In a follow-up study, samples were allowed to incubate at room temperature overnight to determine if the substrate would continue to be converted to the fluorescent product. […]

[1] = system: MDA-MB-435 human breast tumor; test: MDA-MB-435 human breast tumor mouse xenograft; type: in vivo, athymic nude mice; conditions: day 36; outliers removed; taxol 15 mg/kg i.p. twice a wk; MIDS continuous playback
Experimental: Method: MIDS measurement was made in glass sample holders (Kimble autoinjector vials) on (1) neat solution of the preformulated taxol clinical vial, using a 1 ml tuberculin syringe, and 22G needle, to withdraw 0.7 ml from multidose vial (preserve sterility and integrity of solution, so don't syringe back in), then (2) this 0.7 ml taxol formulation will be used to dissolve additional 1 mg vials of taxol, to increase the amount of taxol relative to Cremophor®. The study was designed to evaluate the efficacy of a transduction technology to inhibit tumor growth in an in vivo human tumor mouse xenograft model, and to compare its effect to a standard chemotherapeutic treatment-taxol. 5 million MDA-MB-435 cells, in suspension, were subcutaneously injected into the flanks of athymic nude mice. Treatment began the same day of cell implant (Day 1). Animals were assigned to one of 4 groups. Each animal was monitored for tumor growth twice per week for the duration of the study. One group was treated with Taxol, Two groups were treated with transduction and one group was treated with the taxol vehicle to act as a control.
The mice were athymic nude mice nu/nu with a BALB/c background. Implanted with 5 million of breast cancer tumor line MDA-MB-435(NCI standard originally from the NCI) from American Culture Type Collection, ATCC (Rockville, Md.). […]

pea sprouts = test: Sugar pea sprout stem length, inhibition by herbicide; type: in vivo; conditions: 72 hour, 37° C., 100% humidity; FIG. 31
Experimental: The optimized inherent (MIDS) emission signals of glyphosphate were obtained as described in Sections II and III above, using system equipment and protocols as detailed in Examples 1 and 2 below. In one experiment, an optimized glyphosphate MIDS signal was applied to pea sprouts supported on a moist medium, with signal application over a 72 hour period at 37° C., 100% humidity. Various controls included (1) no signal, (2), the chemical Roundup®, and (3) a white noise signal. Stem length was measured within a hour after exposure to the stimulus, and 5-50 sprouts were contained in each group.

[2] = system: araC-PBAD promoter dependent expression of GFPuv; test: Induction of araC-PBAD GFPuv reporter in pBAD-GFPuv transformed JM109 bacteria, whole cell fluorescence; type: cell-based, E coli; conditions: MIDS = signal playback
Excerpt: The reporter system for sugar sensing was obtained from a commercial supplier. In this system, bacteria are transformed with a plasmid that consists of the gene for AraC, which acts as an activator of the ara operon, and the gene for a variant green florescent protein, under the control of the PBAD promoter. L-arabinose specifically binds to araC and rapidly turns on transcription in a time dependent fashion reaching a maximum expression level within 3 hr as monitored by intact whole cell fluorescence of the expressed GFP. GFPuv expression is linear with dose over two logs of concentration of L-arabinose (1-500 uM).
The inherent (MIDS) emission signals of L and D-arabinose are obtained as detailed above, employing a 0.1 mM solution of L(+) Ara or D(+) Ara for signal recording, and the autocorrelation/FFT method for identifying optimized time-domain signals.
Transduction experiments were performed with two sets of coils. In the first system, a pair of coils consisting of 30 gauge aluminum wire was wound around a 3″ tall section of PVC core with 2⅝″ o.d., wound to 35× the number of windings of starting coils. These were place inside aluminum Faraday boxes 5½×4″×8¾″ (W×H×D) to isolate samples for crossover RF signals. Both boxes were placed upon the orbital shaker platform to aerate transducing cultures.
In the second set of three 4″ tall stock 4000-ft spools of 28G insulated copper wired with 1″ i.d. plastic cores were directly used as transduction coils (“Mega coils”) and two coils were driven with the MIDS signals, while the third control coil was driven by a random white noise generator. In this case, all three coils were isolated in Faraday boxes, and mounted separated by 2 ft on a 6-ft plank that was fitted to the orbital shaker. This ensured that all three samples were agitated at the same speed with one shaker. Thermistor temperature probes were also place into the core of each coil proximal to the sample to provide real-time reading of temperature. Both sets of MIDS signal coils were driven at the highest input voltage setting until their temperature equilibrated near 94-97° F. from resistive heating of the wound wire. Samples were centered in the core of the coil to experience the maximum and most uniform area of RF flux. (a limitation of the current set-up was the linkage of heating with driving voltages which control RF flux).
In a typical experiment, 1-3 drops of overnight cultures of pBAD-GFPuv transformed JM109 grown in Luria broth containing 100-500 ug/ml of sodium ampicillin (LB/amp) were used to seed 50 ml fresh LB/amp. This was well mixed and 10 ml transferred to 25-ml Erlenmeyer flasks, and 0.1 ml of 100× stocks of reference chemical inducers (D or L arabinose) were added to final concentrations desired. These seeded cultures were placed into either the transduction coils, or left on the shaker platform as controls. (Another limitation of the current set up is the availability of only one shaker table, forcing a choice between incubation at controlled above ambient temperature to match the coils but without agitation, or agitation simply at ambient temperature. Also the matching of the coil temperatures varies about 2-3° F. and cannot be precisely controlled or determined). In most cases the transductions were conducted as overnight incubations.
After transduction was stopped, 1.2 ml of bacterial cell culture suspension were transferred to 1.7 ml microcentrifuge tubes and centrifuge 1-2 mins at 12,000 rpm (10,000×rcg). Supernatant broth was removed, discarded and the bacterial pellets re-suspended in 1 ml of ice-cold PBS. Washed suspensions were centrifuged again, PBS wash discarded, pellets re-suspended in fresh PBS, transferred to cuvettes to measure OD600 nm, then volumes were adjusted to match cell density among samples.
For each of the studies reported here, % Relative=[(Fluor. of L(+)ara MIDS)−(Fluor. of D(−)ara MIDS)]
Induction (Fluor. of D(−) ara MIDS).

[3] = system: araC-PBAD promoter dependent expression of GFPuv; conditions: cited from earlier work
[4] = Experiment 1, OD-matched cells, L(+) Ara 0.2 mM, D(−) Ara 1 mM
[5] = Experiment 2, L(+) ara 0.25 mM, D(−) ara 1 mM

| SMILES | Fluorescence Average rfu [2, 4] [rfu] | Fluorescence rfu1 [2, 4] [rfu] | Fluorescence rfu2 [2, 4] [rfu] | Fluorescence rfu3 [2, 4] [rfu] | Fluorescence Average rfu [2, 5] [rfu] | Fluorescence rfu1 [2, 5] [rfu] | Fluorescence rfu2 [2, 5] [rfu] | Fluorescence rfu3 [2, 5] [rfu] | also measured |
| --- | --- | --- | --- | --- | --- | --- | --- | --- | --- |
| CCCC[C@@H](C=O)NC(=O)[C@H](CC(C)C)NC(=O)[C@H](CC(C)C)NC(C)=O [ALLN] (Ac-Leu-Leu-[Nle]-aldehyde) | – | – | – | – | – | – | – | – | Fluorescence relative to positive control sample #2 set to 700 (20S proteasome; 37 C, 2 hrs, MIDS 60 mG AC field): 25.83; % Normalized Fluorescence (20S proteasome; 1 hr 30 min): 4.975%; % Normalized Fluorescence (20S proteasome; 20 hrs post, room temperature overnight, removed from the field): 2.646% |
| CC(=O)O[C@H]1C(=O)[C@@]2(C)[C@H]([C@H](OC(=O)c3ccccc3)[C@]3(O)C[C@H](OC(=O)[C@H](O)[C@@H](NC(=O)c4ccccc4)c4ccccc4)C(C)=C1C3(C)C)[C@]1(OC(C)=O)CO[C@@H]1C[C@@H]2O [taxol] | – | – | – | – | – | – | – | – | tumor growth inhibition [1]: 43% |
| O=C(O)CNCP(=O)(O)O [glyphosphate, N-phosphonomethylglycine] | – | – | – | – | – | – | – | – | stem growth (in words) (pea sprouts): effective in substabtially inhibited stem growth |
| O=C[C@@H](O)[C@H](O)[C@H](O)CO [D(−) Ara, D(−)-arabinose] | 297.7 | 297.6 | 297.8 | 297.7 | 226.5 | 226.7 | 226.7 | 226.1 | binding of araC and activation of genes downstream of the PBAD promoter (in words) ([3]; even at 1000-fold higher concentration than L-arabinose): does not bind araC, nor activate expression of genes downstream of the PBAD promoter |
| O=C[C@H](O)[C@@H](O)[C@@H](O)CO [L(+) Ara, L(+)-arabinose] | 833.5 | 835.0 | 832.7 | 832.7 | 939.7 | 940.0 | 939.4 | 939.7 | concentration range over which GFPuv expression is linear with dose [3]: 1 to 500 µM; potency [3]: 100 µM; time to maximum expression level of GFP ([3]; whole cell fluorescence): ≤ 3 h |
